Columns and labels:
DPPH antioxidant assay = format: biochemical
Protocol: The ability of the cannabinoids to act as potential antioxidants was assessed using the 2,2-diphenyl-1-picrylhydrazyl (DPPH) antioxidant assay. The cannabinoids CBDA, CBD, CBDVA, CBDV, CBG, THCV, and the 1:1 CBD:CBDA mixture had the highest antioxidant activities with radical scavenging activities of 38.19%, 48.00%, 43.81%, 44.21%, 44.28%, 45.71%, and 43.74%, respectively.
The 2,2-diphenyl-1-picrylhydrazyl (DPPH) free radical (Alfa Aesar) was prepared at 0.1 mM in ethanol. The cannabinoids were tested at a final concentration of 100 uM. 2 uL of 7.5 mM stock solutions of the cannabinoids to be tested in DMSO were added to 148 uL of 0.1 mM DPPH to achieve a final concentration of 100 μM in the assay. Ascorbic acid (Thermo Scientific) at a final concentration of 10 mg/ml was used as a positive control. The reaction mixture was incubated in the dark at room temperature for 1 hour, the absorbance of the mixture was read at 517 nm using a Spectra Max 5M microplate reader (Molecular Devices, LLC, Sunnyvale, Calif., USA) and the absorbance was converted to percent radical scavenging activity (% RSA) using the following formula: % RSA=[(Absorbance of the control−Absorbance of the sample)/(Absorbance of the control)]×100.
Free radical production occurs when the immune system is activated and antioxidants represent potential effective treatments for inflammatory conditions and autoimmune diseases. […] The DPPH antioxidant assay can be used to measure the ability of a compound to scavenge free radicals by measuring the ability of compounds to hydrogenate and reduce DPPH. The DPPH assay was conducted on CBCA, CBDA, CBDVA, CBGA, CBLA, CBNA, THCVA, and their decarboxylated derivatives as well as the 1:1 CBD:CBDA mixture.

[1] = test system: cytokine levels in differentiated THP-1 cells treated with LPS; assay: THP-1 human cellular LPS cytokine assay, three independent experiments, total averaged suppression; conditions: for inhibition at 2 µM: Homo sapiens, THP-1, 4 h, read-out: % Cytokine Suppression (total averaged)
Protocol: Cells were seeded onto 24-, or 12-well plates and incubated for 48 hours to 72 hours to allow for differentiation. […] Supernatants were collected for quantification of human cytokine levels to assess the cytokine response. Cells remaining after the supernatant collection were tested to ensure they had at least 90% viability as determined by Alamar Blue assays. To conduct the Alamar Blue assays, supernatants were replaced with culture medium containing 1× Alamar Blue reagent and incubated overnight. Cell viability was assessed by measuring relative fluorescent units (RFU) on the SpectraMax M2e microplate reader (Molecular Devices Inc., Sunnyvale, Calif., USA) at Excitation 560 nm and Emission 590 nm. Controls included untreated cells with DMSO at the same concentration as the treated cells, LPS stimulated cells with DMSO at the same concentration as the treated cells and LPS stimulated cell with the various treatments. The levels of 42 of the most common human cytokines (Eve Technologies, Calgary, Canada Table 6) were determined by multi-plex analysis.
For this reason, the level of cytokine suppression was determined for each cytokine by each cannabinoid that was tested and the total averaged suppression for each cannabinoid was determined by dividing the total suppression by the number of the cytokines that were analyzed.

[2] = test system: differentiated U-937 cells; assay: Human cellular U-937 autophagy induction assay (anti-LC3); format: cell-based; conditions: for activation at 1 µM: Homo sapiens, U-937, 12 h, read-out: Induction of autophagy with respect to the untreated control
Protocol: The induction of autophagy was monitored using anti-LC3 antibodies to detect LC3 on the autophagosome in human U-937 pro-monocytic histiocytic lymphoma cells (ATCC, Manassas, Va., USA), which generate morphologies characteristic of macrophages upon induction by various stimuli. U-937 cells were cultured in RPMI-1640 medium with L-glutamine and sodium bicarbonate (Sigma-Aldrich, St Louis, Mo.) supplemented with 10% fetal bovine serum (FBS) and 1% penicillin in 25 cm2 tissue flasks at 37° C. in a 5% CO2 humidified atmosphere and passaged every 2-3 days. U-937 cells were seeded in 96 well plates at 5×10^5 cells/mL and stimulated with 100 ng/mL PMA to induce differentiation for 24 hours. The cells were then treated with the various cannabinoids at 1.0 μM concentrations for 12 hours. 30 μM chloroquine was used as a positive control. After treatment, the cells were fixed using 3.7% formaldehyde in PBS for 15 minutes at room temperature and washed with PBS to remove the fixative. Permeabilization reagent (0.2% Triton X-100 in PBS) (Sigma-Aldrich) was added, the cells were incubated for 15 minutes at room temperature and then the cells were washed with PBS to remove the permeabilization reagent. LC3B rabbit polyclonal antibody (Invitrogen) was added at a final concentration of 0.5 μg/ml for 1 hour at room temperature and the cells were washed with PBS remove the primary antibody. Secondary conjugated goat anti-rabbit polyclonal antibody (Thermo Scientific) was then added at a final concentration of 2.0 μg/ml for 1 hour at room temperature. The cells were washed, Hoechst dye was added to stain the nucleus and the cells were imaged using an Arrayscan VTI high-content screening (HCS) reader (Thermo Scientific) with the appropriate filters and the data was analyzed using the vHCS Scan software.
Chloroquine at a concentration of 30 μM was included as a positive control. The ability to induce autophagy was determined as a percentage with respect to the untreated control.

| SMILES | % RSA (radical scavenging activity) (DPPH antioxidant assay; 10 mg/ml, positive control) | inhibition at 2 µM [1] | Fluorescence (LC3) ([2]; 1.0 μM, 12 hours) | activation at 1 µM [2] | % RSA (radical scavenging activity) (DPPH antioxidant assay; 100 μM, 1 hour) | effectiveness at reducing elevated cytokine levels relative to dexamethasone [1] | radical scavenging activity compared to the untreated control (DPPH antioxidant assay; 100 μM) | Fluorescence (LC3) ([2]; 30 uM, positive control) |
| --- | --- | --- | --- | --- | --- | --- | --- | --- |
| O=C1O[C@H]([C@@H](O)CO)C(O)=C1O [Ascorbic acid, reference compound] | 94.00% | – | – | – | – | – | – | – |
| CCCCCc1cc(O)c2c(c1)OC(C)(CCC=C(C)C)C=C2 (centres unmarked) [CBC, 2-Methyl-2-(4-methyl-3-penten-1-yl)-7-pentyl-2H-chromen-5-ol] | – | 22.6% | 47.84 | -0.85% | 31.95% | – | – | – |
| CCCCCc1cc2c(c(O)c1C(=O)O)C=CC(C)(CCC=C(C)C)O2 (centres unmarked) [CBCA, 5-Hydroxy-2-methyl-2-(4-methyl-3-penten-1-yl)-7-pentyl-2H-chromene-6-carboxylic acid] | – | 34.6% | 42.61 | -11.7% | 19.02% | at least half as effective as dexamethasone | – | – |
| C=C(C)C1CCC(C)=CC1c1c(O)cc(CCC)cc1O (centres unmarked) [CBDV, 2-(6-Isopropenyl-3-methyl-2-cyclohexen-1-yl)-5-propyl-1,3-benzenediol] | – | 36.7% | 38.19 | -20.9% | 44.21% | at least half as effective as dexamethasone | at least two-fold | – |
| C=C(C)[C@@H]1CCC(C)=C[C@H]1c1c(O)cc(CCC)c(C(=O)O)c1O [CBDVA, 2,4-Dihydroxy-3-[(1R,6R)-6-isopropenyl-3-methyl-2-cyclohexen-1-yl]-6-propylbenzoic acid] | – | 32.4% | 39.29 | -18.6% | 43.81% | at least half as effective as dexamethasone | at least two-fold | – |
| CCCCCc1cc(O)c(C/C=C(\C)CCC=C(C)C)c(O)c1 [CBG, 2-[(2E)-3,7-Dimethyl-2,6-octadien-1-yl]-5-pentyl-1,3-benzenediol] | – | 35.8% | 37.35 | -22.6% | 44.28% | at least half as effective as dexamethasone | at least two-fold | – |
| CCCCCc1cc(O)c(C/C=C(\C)CCC=C(C)C)c(O)c1C(=O)O [CBGA, 3-[(2E)-3,7-Dimethyl-2,6-octadien-1-yl]-2,4-dihydroxy-6-pentylbenzoic acid] | – | 34.3% | 37.47 | -22.3% | 26.84% | at least half as effective as dexamethasone | – | – |
| CCCCCc1cc(O)c2c(c1)OC1(C)CCC3C1C2C3(C)C (centres unmarked) [CBL, 1,1,3a-Trimethyl-6-pentyl-1a,2,3,3a,8b,8c-hexahydro-1H-4-oxabenzo[f]cyclobuta[cd]inden-8-ol] | – | 43.6% | 76.86 | 59.3% | 30.84% | at least half as effective as dexamethasone | – | – |
| CCCCCc1cc2c(c(O)c1C(=O)O)[C@@H]1[C@H]3[C@H](CC[C@@]3(C)O2)C1(C)C [CBLA, (1aS,3aR,8bR,8cR)-8-Hydroxy-1,1,3a-trimethyl-6-pentyl-1a,2,3,3a,8b,8c-hexahydro-1H-4-oxabenzo[f]cyclobuta[cd]indene-7-carboxylic acid] | – | 34.4% | 72.27 | 49.8% | 21.18% | at least half as effective as dexamethasone | – | – |
| CCN(CC)CCCC(C)Nc1ccnc2cc(Cl)ccc12 (centres unmarked) [Chloroquine, chloroquine, reference compound] | – | – | – | – | – | – | – | 111.20 |
